Drawing on patent US20090253669A1, “Substituted Sulfonamide Compounds” (GRUENENTHAL GmbH, priority 2008, published 2009), this text covers inhibition for 18 compounds.

Broadly, the inhibition is the change of the read-out against control, counted positive when it falls.

Each structure is given as a SMILES string.

Assay [1] has as its target T1, human B1R receptor (hB1R) (Homo sapiens, UniProt P46663).
T1 construct: host or cells: CHO K1 cells
T1 sequence (P46663 1-353): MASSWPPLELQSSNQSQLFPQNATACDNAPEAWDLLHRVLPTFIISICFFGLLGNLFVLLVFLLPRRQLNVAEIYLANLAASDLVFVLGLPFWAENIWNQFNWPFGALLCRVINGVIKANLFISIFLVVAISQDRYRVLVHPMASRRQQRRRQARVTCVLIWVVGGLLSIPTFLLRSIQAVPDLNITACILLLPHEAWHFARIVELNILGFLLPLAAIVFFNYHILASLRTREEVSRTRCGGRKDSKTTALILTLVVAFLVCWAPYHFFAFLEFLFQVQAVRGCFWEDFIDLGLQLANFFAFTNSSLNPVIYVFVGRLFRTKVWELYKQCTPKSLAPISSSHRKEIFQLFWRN
Briefly: FLIPR Ca2+ assay on hB1R-transfected CHO K1 cells, antagonistic action. The class given is cell-based. As to conditions: CHO-K1, 10 μM test substance; agonist Lys-Des-Arg9-bradykinin 0.5 nM; % of maximum achievable inhibition; read-out: hB1R [10 μM] % inhibition.

Assay [2] concerns the target T2, B1R receptor of the rat (rB1R) (Rattus norvegicus, UniProt P97583).
T2 construct: host or cells: CHO K1 cells
T2 sequence (P97583 1-337): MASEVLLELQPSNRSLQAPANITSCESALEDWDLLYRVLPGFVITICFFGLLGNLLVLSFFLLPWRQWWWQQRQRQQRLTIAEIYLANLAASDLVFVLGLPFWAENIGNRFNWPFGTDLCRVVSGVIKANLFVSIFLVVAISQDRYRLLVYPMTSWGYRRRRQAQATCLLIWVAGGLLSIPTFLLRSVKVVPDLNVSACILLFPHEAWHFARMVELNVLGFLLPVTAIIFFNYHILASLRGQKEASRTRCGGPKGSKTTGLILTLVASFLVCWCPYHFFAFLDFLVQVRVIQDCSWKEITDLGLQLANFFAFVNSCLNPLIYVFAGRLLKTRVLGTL
Briefly: FLIPR Ca2+ assay on rB1R-transfected CHO K1 cells, antagonistic action. The class given is cell-based. The note with it: CHO-K1, 10 μM test substance; agonist Des-Arg9-bradykinin 100 nM; % of maximum achievable inhibition; read-out: rB1R [10 μM] % inhibition.

On to `Cc1cc(S(=O)(=O)N2CCCCC2CCC(=O)N2CCC(c3ccccc3)(N(C)C)CC2)c(C)cc1Cl` (stereo not drawn) [Compound 123, 3-(1-(4-chloro-2,5-dimethylphenylsulfonyl)piperidin-2-yl)-1-(4-(dimethylamino)-4-phenylpiperidin-1-yl)propan-1-one], for which the inhibition at 10 µM is 103% in assay [1] and 60% in assay [2].
The corresponding values for `CN(CCC1CCC(Cc2ccccc2)(N(C)C)CC1)C(=O)CC(NS(=O)(=O)c1ccc2ccccc2c1)c1ccccc1` (stereo not drawn) [Compound 86, N-(2-(4-benzyl-4-(dimethylamino)cyclohexyl)ethyl)-N-methyl-3-(naphthalene-2-sulfonamido)-3-phenylpropanamide] are 101% and 99%.
Regarding `CN(C)C1(CCc2ccccc2)CCN(C(=O)CC(NS(=O)(=O)c2ccc3ccccc3c2)c2ccccc2)CC1` (stereo not drawn) [Compound 105, N-(3-(4-(dimethylamino)-4-phenethylpiperidin-1-yl)-3-oxo-1-phenylpropyl)naphthalene-2-sulfonamide], the inhibition at 10 µM amounted to 83% in assay [1] and 81% in assay [2].
Take `CN(CCC1CCC(CCc2ccccc2)(N2CCCC2)CC1)C(=O)CC(NS(=O)(=O)c1ccc2ccccc2c1)c1ccccc1` (stereo not drawn) [Compound 114, N-methyl-3-(naphthalene-2-sulfonamido)-N-(2-(4-phenethyl-4-(pyrrolidin-1-yl)cyclohexyl)ethyl)-3-phenylpropanamide]: the inhibition at 10 µM in assay [1] turned out to be 96%; in assay [2] it was 73%.
On to `COc1cc(C)c(S(=O)(=O)N2c3ccccc3OCC2COCC(=O)N2CCC(c3cccc(F)c3)(N3CCN(C)CC3)CC2)c(C)c1` (stereo not drawn) [Compound 221, 1-(4-(3-Fluorophenyl)-4-(4-methylpiperazin-1-yl)piperidin-1-yl)-2-((4-(4-methoxy-2,6-dimethylphenylsulfonyl)-3,4-dihydro-2H-benzo[b][1,4]oxazin-3-yl)methoxy)ethanone], for which the inhibition at 10 µM in assay [1] and in assay [2] was 99% each time.
Consider `COc1cc(C)c(S(=O)(=O)N2CCCCC2COCC(=O)N2CCC(c3ccccc3)(N3CCN(C)CC3)CC2)c(C)c1` (stereo not drawn) [Compound 49, 2-((1-(4-methoxy-2,6-dimethylphenylsulfonyl)piperidin-2-yl)methoxy)-1-(4-(4-methylpiperazin-1-yl)-4-phenylpiperidin-1-yl)ethanone], for which the inhibition at 10 µM worked out at 103% in assay [1] and 100% in assay [2].
The corresponding values for `CN(CCCC1CCC(c2ccccc2)(N2CCCC2)CC1)C(=O)CC1CCCCN1S(=O)(=O)c1cccc(C(F)(F)F)c1` (stereo not drawn) [Compound 37, N-methyl-N-(3-(4-phenyl-4-(pyrrolidin-1-yl)cyclohexyl)propyl)-2-(1-(3-(trifluoromethyl)phenylsulfonyl)piperidin-2-yl)acetamide] are 103% and 101%.
`CN1CCN(C2(CCc3ccccc3)CCN(C(=O)CC(NS(=O)(=O)c3ccc4ccccc4c3)c3ccccc3)CC2)CC1` (stereo not drawn) [Compound 55, N-(3-(4-(4-methylpiperazin-1-yl)-4-phenethylpiperidin-1-yl)-3-oxo-1-phenylpropyl)naphthalene-2-sulfonamide]: the inhibition at 10 µM in assay [1] came to 99%; in assay [2], 100%.
In the case of `CN(CCC1CCC(Cc2ccccc2)(N(C)C)CC1)C(=O)COCC1CCc2ccccc2N1S(=O)(=O)c1ccc(Cl)c(Cl)c1` (stereo not drawn) [Compound 61, N-(2-(4-benzyl-4-(dimethylamino)cyclohexyl)ethyl)-2-((1-(3,4-dichlorophenylsulfonyl)-1,2,3,4-tetrahydroquinolin-2-yl)methoxy)-N-methylacetamide], the inhibition at 10 µM is 49% in assay [1] and 100% in assay [2].
Taken in the same sequence, the figures for `Cc1cc(S(=O)(=O)N2CCCCC2CCC(=O)N(C)CCCC2CCC(c3ccccc3)(N3CCCC3)CC2)c(C)cc1Cl` (stereo not drawn) [Compound 136, 3-(1-(4-chloro-2,5-dimethylphenylsulfonyl)piperidin-2-yl)-N-methyl-N-(3-(4-phenyl-4-(pyrrolidin-1-yl)cyclohexyl)propyl)propanamide] were 99% and 32%.
The corresponding values for `CN(CCC1CCC(CCc2ccccc2)(N(C)C)CC1)C(=O)COCC1CCc2ccccc2N1S(=O)(=O)c1ccc(Cl)c(Cl)c1` (stereo not drawn) [Compound 101, 2-((1-(3,4-dichlorophenylsulfonyl)-1,2,3,4-tetrahydroquinolin-2-yl)methoxy)-N-(2-(4-(dimethylamino)-4-phenethylcyclohexyl)ethyl)-N-methylacetamide] are 99% and 88%.
Regarding `CN(CC1CCC(Cc2ccccc2)(N2CCCC2)CC1)C(=O)CC(NS(=O)(=O)c1ccc2ccccc2c1)c1ccccc1` (stereo not drawn) [Compound 112, N-((4-benzyl-4-(pyrrolidin-1-yl)cyclohexyl)methyl)-N-methyl-3-(naphthalene-2-sulfonamido)-3-phenylpropanamide], the results for the inhibition at 10 µM in assay [1] and in assay [2] were 97% and 77%, respectively.
For the compound `Cc1cc(S(=O)(=O)N2CCCCC2CCC(=O)N(C)CCC2CCC(c3ccccc3)(N(C)C)CC2)c(C)cc1Cl` (stereo not drawn) [Compound 107, 3-(1-(4-chloro-2,5-dimethylphenylsulfonyl)piperidin-2-yl)-N-(2-(4-(dimethylamino)-4-phenylcyclohexyl)ethyl)-N-methylpropanamide], the inhibition at 10 µM stood at 105% in assay [1] and 79% in assay [2].
Turning to `CN(CCC1CCC(c2ccccc2)(N(C)C)CC1)C(=O)CC1CCCCN1S(=O)(=O)c1cccc(C(F)(F)F)c1` (stereo not drawn) [Compound 125, N-(2-(4-(dimethylamino)-4-phenylcyclohexyl)ethyl)-N-methyl-2-(1-(3-(trifluoromethyl)phenylsulfonyl)piperidin-2-yl)acetamide], the inhibition at 10 µM stood at 98% in assay [1] and 56% in assay [2].
Regarding `CN(C)C1(CCc2ccccc2)CCN(C(=O)CC2CCCCN2S(=O)(=O)c2cccc(C(F)(F)F)c2)CC1` (stereo not drawn) [Compound 71, 1-(4-(dimethylamino)-4-phenethylpiperidin-1-yl)-2-(1-(3-(trifluoromethyl)phenylsulfonyl)piperidin-2-yl)ethanone], the inhibition at 10 µM in assay [1] was 92%; in assay [2] it was 99%.
Taken in the same sequence, the figures for `CN(CC1CCC(c2ccccc2)(N2CCCC2)CC1)C(=O)CC(NS(=O)(=O)c1ccc2ccccc2c1)c1ccccc1` (stereo not drawn) [Compound 92, N-methyl-3-(naphthalene-2-sulfonamido)-3-phenyl-N-((4-phenyl-4-(pyrrolidin-1-yl)cyclohexyl)methyl)propanamide] were 101% and 95%.
With `CN(CCOCC(=O)NC1CCC(Cc2ccccc2)(N2CCCC2)CC1)S(=O)(=O)c1c(Cl)cc(Cl)cc1Cl` (stereo not drawn) [Compound 189, N-(4-benzyl-4-(pyrrolidin-1-yl)cyclohexyl)-2-(2-(2,4,6-trichloro-N-methylphenylsulfonamido)ethoxy)acetamide], the figures for the inhibition at 10 µM in assay [1] and in assay [2] were 65% and 60%, respectively.
With `O=C(COCC1CCCN1S(=O)(=O)c1c(Cl)cc(Cl)cc1Cl)NC1CCC(Cc2ccccc2)(N2CCCC2)CC1` (stereo not drawn) [Compound 156, N-(4-benzyl-4-(pyrrolidin-1-yl)cyclohexyl)-2-((1-(2,4,6-trichlorophenylsulfonyl)pyrrolidin-2-yl)methoxy)acetamide], the inhibition at 10 µM was determined as 76% in assay [1] and 100% in assay [2].
